Measurements as given in ChEMBL document CHEMBL1201862, “PubChem BioAssay data set” (2004).
Activity calls are given as the source filed them.

Assays:
[1] = test system: Streptococcus; assay: Luminescence Microorganism-Based Dose Response Follow up to Identify Compounds Cytotoxic to Streptococcus. [Related pubchem assays: 1677 (Project Summary), 1915, 1914, 1902 (Retest at Dose), 1900 (Counter Screen), 1662 (Primary HTS)]; assay type: functional, organism-based
[2] = test system: Streptococcus; assay: Group A Streptococcus viability loss, dose response, counter-screen for streptokinase expression inhibitor project, luminescence, BacTiterGlo (AID 1915); assay type: functional, organism-based;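 further: potency for reduction of bacterial viability or growth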
[3] = molecular target: T1, Streptokinase A (Streptococcus pyogenes serotype M1, UniProt P10520); assay: S. pyogenes streptokinase expression inhibitors, potency, dose response, plasminogen activation absorbance, OD405 (AID 1914); assay type: functional, Streptococcus pyogenes M1 GAS;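 further: secreted streptokinase activity via plasminogen activation per viability signal from cell pellet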
T1 sequence (P10520 whole entry): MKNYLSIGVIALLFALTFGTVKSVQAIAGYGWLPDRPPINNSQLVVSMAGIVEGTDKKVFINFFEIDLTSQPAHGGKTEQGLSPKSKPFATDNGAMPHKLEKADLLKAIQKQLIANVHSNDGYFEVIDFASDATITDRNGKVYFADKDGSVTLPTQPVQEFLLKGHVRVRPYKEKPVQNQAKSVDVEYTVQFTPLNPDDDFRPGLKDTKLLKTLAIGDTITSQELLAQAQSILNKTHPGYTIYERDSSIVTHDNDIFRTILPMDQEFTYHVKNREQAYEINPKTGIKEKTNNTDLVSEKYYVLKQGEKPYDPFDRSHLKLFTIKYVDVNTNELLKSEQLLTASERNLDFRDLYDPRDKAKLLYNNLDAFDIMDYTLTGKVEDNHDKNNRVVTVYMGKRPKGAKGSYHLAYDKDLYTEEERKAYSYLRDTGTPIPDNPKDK

[4] = test system: Streptococcus sp. 'group A'; assay: growth inhibition of control SK(-) GAS strain, dose response, counter-screen for streptokinase expression inhibitor project, luminescence, kanamycin, BacTiterGlo, confirmation (AID 1900); assay type: functional, organism-based
[5] = molecular target: T2, Hexokinase HKDC1 (Homo sapiens, UniProt Q2TB90); assay: HKDC1 hexokinase inhibitors, dose response, biochemical, W721R variant (AID 504729); assay type: functional
T2 sequence (Q2TB90 whole entry): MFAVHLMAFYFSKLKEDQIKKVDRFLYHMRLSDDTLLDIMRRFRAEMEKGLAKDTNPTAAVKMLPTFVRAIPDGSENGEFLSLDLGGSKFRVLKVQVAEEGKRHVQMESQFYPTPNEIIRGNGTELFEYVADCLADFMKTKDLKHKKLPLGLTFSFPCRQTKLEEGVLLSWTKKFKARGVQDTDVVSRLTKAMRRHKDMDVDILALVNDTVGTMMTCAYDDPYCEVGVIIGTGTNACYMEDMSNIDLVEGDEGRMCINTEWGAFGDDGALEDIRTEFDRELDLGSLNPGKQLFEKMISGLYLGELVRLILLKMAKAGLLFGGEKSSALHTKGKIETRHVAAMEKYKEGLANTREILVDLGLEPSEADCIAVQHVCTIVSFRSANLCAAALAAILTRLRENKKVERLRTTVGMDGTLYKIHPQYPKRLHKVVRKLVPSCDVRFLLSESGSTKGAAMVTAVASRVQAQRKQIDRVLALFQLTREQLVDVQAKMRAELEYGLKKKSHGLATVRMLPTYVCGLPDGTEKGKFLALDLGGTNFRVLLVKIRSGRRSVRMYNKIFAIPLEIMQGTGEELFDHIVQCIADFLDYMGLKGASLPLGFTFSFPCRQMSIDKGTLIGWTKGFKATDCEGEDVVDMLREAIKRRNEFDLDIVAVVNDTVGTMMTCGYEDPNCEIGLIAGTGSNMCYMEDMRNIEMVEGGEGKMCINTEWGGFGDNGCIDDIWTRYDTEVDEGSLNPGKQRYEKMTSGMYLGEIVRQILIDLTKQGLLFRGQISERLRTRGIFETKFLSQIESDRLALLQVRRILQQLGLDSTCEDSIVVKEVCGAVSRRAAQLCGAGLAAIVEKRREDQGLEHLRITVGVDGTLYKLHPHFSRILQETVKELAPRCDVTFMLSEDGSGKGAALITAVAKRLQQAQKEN

[6] = molecular target: Oxytocin receptor (Homo sapiens, UniProt P30559); assay: Fluorescence-based cell-based high throughput dose response assay for agonists of the Oxytocin Receptor (OXTR). [Related pubchem assays: 2435 (Primary screen (OXTR agonists in singlicate)), 434991 (Counterscreen (V1R agonists in triplicate)), 2482 (Summary (OXTR agonists)), 434963 (Confirmation screen (OXTR agonists in triplicate))]; assay type: functional
[7] = miR-122 activators in hepatoma reporter cells, dose response, cell-based, Huh7 psiCHECK-miR122, Renilla luciferase, cherry-picked (AID 651956); assay type: functional;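 further: huh7 hepatoma cells stably carrying a psiCHECK-2 miR-122 sensor plasmid; renilla luciferase signal reporting endogenous miR-122 activity after 48 h compound exposure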
[8] = molecular target: Vasopressin V1a receptor (Homo sapiens, UniProt P37288); assay: Counterscreen for Oxytocin Receptor (OXTR) agonists: Fluorescence-based cell-based high throughput dose response assay to identify agonists of the vasopressin 1 receptor (V1R). [Related pubchem assays: 2435 (Primary screen (OXTR agonists in singlicate)), 434991 (Counterscreen (V1R agonists in triplicate)), 2482 (Summary (OXTR agonists)) …; assay type: functional
[9] = molecular target: T3, Microphthalmia-associated transcription factor (Homo sapiens, UniProt O75030); assay: TRPM1 promoter luciferase signal decrease, dose response, MITF inhibitor project, cell-based, SK-MEL-5, cherry-picked, set 3 (AID 493073); assay type: functional
T3 sequence (O75030 whole entry): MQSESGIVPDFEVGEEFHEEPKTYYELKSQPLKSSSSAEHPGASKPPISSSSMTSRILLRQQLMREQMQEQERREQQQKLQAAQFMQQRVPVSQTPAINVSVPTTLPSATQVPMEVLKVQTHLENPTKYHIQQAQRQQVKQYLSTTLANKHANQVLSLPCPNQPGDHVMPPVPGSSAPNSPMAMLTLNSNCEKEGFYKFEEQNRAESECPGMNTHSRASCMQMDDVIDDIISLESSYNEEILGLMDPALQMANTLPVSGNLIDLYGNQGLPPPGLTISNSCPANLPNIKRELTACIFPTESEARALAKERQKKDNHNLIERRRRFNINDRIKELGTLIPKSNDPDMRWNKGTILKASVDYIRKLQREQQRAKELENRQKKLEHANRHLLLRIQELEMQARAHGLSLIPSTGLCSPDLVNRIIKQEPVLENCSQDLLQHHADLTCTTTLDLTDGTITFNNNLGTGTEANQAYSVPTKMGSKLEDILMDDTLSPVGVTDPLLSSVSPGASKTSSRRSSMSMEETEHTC

[10] = HEK293T cytotoxicity, dose response, cytotoxicity control for miR-122 modulator project, cell-based, activator set, cherry-pick (AID 720690); assay type: functional;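 further: HEK293T human cells scored for general mammalian cytotoxicity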
[11] = test system: A-375; assay: MITF: Counter assay: A375 proliferation Measured in Cell-Based System Using Plate Reader - 2084-03_Inhibitor_Dose_DryPowder_Activity. [Related pubchem assays (depositor defined):AID488944]; assay type: functional; conditions: Homo sapiens
[12] = molecular target: Dual specificity protein phosphatase 3 (Homo sapiens, UniProt P51452); assay: SAR VHR1 Fluorescent Assay for In Vitro dose response studies Set 2. [Related pubchem assays (depositor defined):AID1654, AID1661, AID1878]; assay type: functional
[13] = molecular target: T4, Tyrosine-protein phosphatase non-receptor type 7 (Homo sapiens, UniProt P35236); assay: SAR analysis of chemical inhibitors of HePTP using a Fluorescent assay - Set 2. [Related pubchem assays (depositor defined):AID1059, AID1077, AID1661, AID2085, AID521]; assay type: functional
T4 sequence (P35236 whole entry): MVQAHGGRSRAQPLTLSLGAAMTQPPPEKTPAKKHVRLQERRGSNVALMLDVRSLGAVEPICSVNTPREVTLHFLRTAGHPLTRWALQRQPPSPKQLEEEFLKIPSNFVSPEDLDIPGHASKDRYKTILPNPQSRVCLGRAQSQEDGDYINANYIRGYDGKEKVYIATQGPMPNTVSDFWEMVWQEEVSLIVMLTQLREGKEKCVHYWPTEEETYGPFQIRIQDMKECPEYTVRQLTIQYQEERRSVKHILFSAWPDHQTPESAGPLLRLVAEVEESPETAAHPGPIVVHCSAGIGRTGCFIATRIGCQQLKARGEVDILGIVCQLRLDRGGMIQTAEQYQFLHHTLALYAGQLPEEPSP

[14] = cytotoxicity in HEK-293T cells, dose response, cytotoxicity control for BCR NF-kB inhibitor project, luminescence, B-cell screen hits (AID 489021); assay type: functional, cell-based;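 further: HEK-293T cells carrying an NF-kB luciferase reporter; cells exposed to compound for about 14 hours before viability readout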
[15] = Luminescence Cell-Based Dose Response HTS to Identify Inhibitors of 5'UTR Stem-Loop Driven Prion Protein mRNA Translation in H4 Neuroglioblastoma Cells. [Related pubchem assays: 1827 (Project Summary), 1813 (Primary HTS)]; assay type: functional
[16] = inhibitors of firefly luciferase expression or activity, dose response, H4 neuroglioma cells, luminescence (AID 1990); assay type: functional, cell-based
[17] = inhibitors of SNCA 5'UTR-driven reporter translation, confirmation, H4 neuroglioma cells, luminescence (AID 1988); assay type: functional, cell-based
[18] = molecular target: Cytochrome P450 3A4 (Homo sapiens, UniProt P08684); conditions: Potency;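 further: confirmatory qHTS run detecting inhibitors and substrates of CYP3A4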
Chain of Cytochrome P450 3A4 (P08684 whole entry): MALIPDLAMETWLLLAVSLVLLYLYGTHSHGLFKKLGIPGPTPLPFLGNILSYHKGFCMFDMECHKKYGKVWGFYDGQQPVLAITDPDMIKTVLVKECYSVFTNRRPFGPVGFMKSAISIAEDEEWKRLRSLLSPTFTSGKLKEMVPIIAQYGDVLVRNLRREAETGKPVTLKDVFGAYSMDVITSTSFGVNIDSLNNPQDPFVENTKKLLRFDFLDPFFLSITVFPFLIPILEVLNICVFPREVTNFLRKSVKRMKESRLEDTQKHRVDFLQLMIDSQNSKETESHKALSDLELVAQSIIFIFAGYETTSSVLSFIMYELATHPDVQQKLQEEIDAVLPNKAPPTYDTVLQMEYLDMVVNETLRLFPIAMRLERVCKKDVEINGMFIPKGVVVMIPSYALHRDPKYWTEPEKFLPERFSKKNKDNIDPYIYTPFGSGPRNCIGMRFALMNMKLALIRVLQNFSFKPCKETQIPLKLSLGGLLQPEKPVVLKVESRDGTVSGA

Chain of Dual specificity protein phosphatase 3 (P51452 whole entry): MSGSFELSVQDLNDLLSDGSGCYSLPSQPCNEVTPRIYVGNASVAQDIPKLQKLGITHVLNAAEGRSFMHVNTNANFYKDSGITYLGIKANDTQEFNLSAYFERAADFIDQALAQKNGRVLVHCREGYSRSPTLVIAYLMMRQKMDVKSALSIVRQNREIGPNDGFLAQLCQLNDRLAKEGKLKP
Chain of Vasopressin V1a receptor (P37288 whole entry): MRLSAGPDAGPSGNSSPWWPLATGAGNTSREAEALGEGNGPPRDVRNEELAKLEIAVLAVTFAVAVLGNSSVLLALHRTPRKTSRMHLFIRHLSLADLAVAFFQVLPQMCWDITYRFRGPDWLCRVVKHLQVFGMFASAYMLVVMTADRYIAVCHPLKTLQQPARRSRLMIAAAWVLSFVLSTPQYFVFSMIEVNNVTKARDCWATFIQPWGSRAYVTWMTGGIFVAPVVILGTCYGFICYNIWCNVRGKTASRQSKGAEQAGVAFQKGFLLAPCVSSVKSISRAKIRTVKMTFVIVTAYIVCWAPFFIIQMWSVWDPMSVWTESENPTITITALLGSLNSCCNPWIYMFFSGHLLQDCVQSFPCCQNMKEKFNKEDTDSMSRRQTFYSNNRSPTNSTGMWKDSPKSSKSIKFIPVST
Chain of Oxytocin receptor (P30559 whole entry): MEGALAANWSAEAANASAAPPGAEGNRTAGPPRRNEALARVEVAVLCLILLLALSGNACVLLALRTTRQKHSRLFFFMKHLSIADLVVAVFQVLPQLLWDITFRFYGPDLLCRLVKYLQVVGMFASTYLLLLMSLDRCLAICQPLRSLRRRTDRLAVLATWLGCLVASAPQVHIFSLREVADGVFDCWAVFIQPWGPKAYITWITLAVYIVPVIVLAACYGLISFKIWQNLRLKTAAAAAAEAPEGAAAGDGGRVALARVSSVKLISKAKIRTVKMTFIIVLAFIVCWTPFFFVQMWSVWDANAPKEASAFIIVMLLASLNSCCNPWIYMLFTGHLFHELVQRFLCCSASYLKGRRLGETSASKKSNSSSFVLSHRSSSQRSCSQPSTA

In the case of `Cc1ccc(C(=O)C(c2ccccc2)N2Cc3ccccc3C2=N)cc1` (centres undefined), the EC50 [1] was 33.5 µM (active).

With `CCN(CC)C(=S)SCC(=O)Nc1nc(-c2ccccc2)c(-c2ccccc2)o1` the EC50 [2] was > 150 µM (not active), the EC50 [3] was 8.54 µM (active) and the EC50 [4] was 7.26 µM (active). For the same compound, the EC50 [1] was > 500 µM (not active).

For `COc1ccc(NC(=O)CSc2ccc(-c3cccnc3)nn2)c(OC)c1`, the IC50 [5] was 17.8 µM (active).

For `N=c1n(CC(=O)c2ccc(Br)s2)c2ccccc2n1Cc1ccccc1`, the EC50 [6] was 14.8 µM (not active), the AC50 [7] was 10.9 µM (active) and the EC50 [8] was 15.1 µM (not active). The AC50 [9] was 7.34 µM (active), the AC50 [10] was 11.4 µM (active) and the AC50 [11] was 19.7 µM (active).

In the case of `COc1cc(C(=S)NCc2cccc(C(F)(F)F)c2)ccc1O`, the IC50 [12] was 47 µM (active) and the IC50 [13] was 55 µM (active).

In the case of `O=c1ccc2nccc3c4c(O)cccc4n1c23`, the IC50 [14] was > 80 µM (inactive), the EC50 [15] was 9.94 µM (active) and the EC50 [16] was 12.7 µM (active). For the same compound, the EC50 [17] was 11.9 µM (active).

For `CC(C)=CCOc1cc2oc(=O)ccc2cc1O` [PRENYLETIN], the AC50 [18] was 39.8 µM (inconclusive).
